In brackets after ≈: the same amount, converted by molar mass.
How the values were obtained:
Test in all cases: ≥ marks a high value that may be exact or a test limit, other limits are often not marked, values filed in µg/mL are converted to µM
[1] = test system: Escherichia coli ATCC 25922
[2] = test system: Staphylococcus aureus ATCC 25923
[3] = test system: Pseudomonas aeruginosa ATCC 27853

Row | SMILES | MIC [1] | MIC [2] | MIC [3]
1 | CC(C)C[C@H](NC(=O)[C@H](C)NC(=O)[C@H](CCCCN)NC(=O)[C@H](C)NC(=O)[C@H](CC(C)C)NC(=O)[C@H](CC(=O)O)NC(=O)[C@@H](N)CCC(=O)O)C(=O)N[C@@H](C)C(=O)N[C@@H](CCCCN)C(=O)N[C@@H](CCCCN)C(=O)O [EDLAKALAKK] | 4600 µM (≈ 5000 µg/mL) | 2300 µM (≈ 2500 µg/mL) | 
2 | CC[C@H](C)[C@H](NC(=O)CNC(=O)[C@H](CC(N)=O)NC(=O)[C@@H](NC(=O)[C@@H](NC(=O)CNC(=O)[C@@H](NC(=O)[C@H](CCCCN)NC(=O)[C@@H](NC(=O)CNC(=O)[C@H](CCCCN)NC(=O)CNC(=O)[C@@H](NC(=O)[C@@H](NC(=O)[C@H](CCCCN)NC(=O)[C@@H]1CCCN1C(=O)[C@H](Cc1ccccc1)NC(=O)[C@@H](NC(=O)CN)[C@@H](C)CC)[C@@H](C)CC)[C@@H](C)CC)[C@@H](C)CC)[C@@H](C)O)[C@@H](C)CC)C(C)C)C(=O)N[C@@H](CCCCN)C(=O)N[C@@H](CO)C(=O)N[C@@H](CC(C)C)C(=O)N[C@H](C(=O)N[C@@H](CCCCN)C(=O)NCC(=O)N[C@H](C(=O)NCC(=O)N[C@@H](CCSC)C(=O)N[C@@H](CCCCN)C(=O)N[C@H](C(=O)N[C@@H](Cc1ccccc1)C(=O)N[C@@H](CCCCN)C(=O)N[C@@H](C)C(=O)NCC(=O)N[C@@H](CC(C)C)C(=O)N[C@@H](CC(N)=O)C(=O)N[C@@H](CC(N)=O)C(=O)N[C@H](C(=O)NCC(=O)N[C@@H](CC(N)=O)C(=O)N[C@H](C(=O)NCC(=O)N[C@H]1CSSC[C@@H](C(=O)O)NC(=O)[C@H](CCC(=O)O)NC(=O)[C@H](CC(=O)O)NC(=O)[C@H](CCC(=O)O)NC(=O)[C@H](CC(N)=O)NC1=O)[C@@H](C)O)[C@@H](C)CC)C(C)C)C(C)C)C(C)C [GIFPKIIGKGIKTGIVNGIKSLVKGVGMKVFKAGLNNIGNTGCNEDEC] | 1 µM (≈ 4.93 µg/mL) |  | 
3 | CC(C)C[C@H](NC(=O)[C@H](CC(N)=O)NC(=O)[C@H](CCCCN)NC(=O)[C@H](CCCN=C(N)N)NC(=O)[C@@H]1CCCN1C(=O)[C@H](C)N)C(=O)N[C@@H](CCCCN)C(=O)N[C@@H](Cc1c[nH]c2ccccc12)C(=O)O [APRKNLKW] | 31.6 µM (≈ 32 µg/mL) |  | 
4 | CC(C)[C@H](NC(=O)[C@H](CC(N)=O)NC(=O)[C@H](CCCCN)NC(=O)[C@H](CCCN=C(N)N)NC(=O)[C@@H]1CCCN1C(=O)[C@H](C)N)C(=O)N[C@@H](CCCN=C(N)N)C(=O)N[C@@H](Cc1c[nH]c2ccccc12)C(=O)O [APRKNVRW] | 62.4 µM (≈ 64 µg/mL) |  | 
5 | CC[C@H](C)[C@H](NC(=O)[C@H](CCCCN)NC(=O)[C@H](CC(C)C)NC(=O)[C@H](CC(C)C)NC(=O)[C@@H]1CCCN1C(=O)CNC(=O)[C@H](CC(C)C)NC(=O)[C@H](CCCCN)NC(=O)CN)C(=O)N[C@@H](C)C(=O)N[C@@H](C)C(=O)N[C@@H](CCCCN)C(=O)N[C@H](C(=O)NCC(=O)N[C@@H](CO)C(=O)N[C@@H](CC(N)=O)C(=O)N[C@@H](CC(C)C)C(=O)N[C@@H](CC(C)C)C(N)=O)C(C)C [GKLGPLLKIAAKVGSNLL] | 12.5 µM (≈ 22.4 µg/mL) |  | 
6 | CC[C@H](C)[C@H](NC(=O)[C@H](CCCN=C(N)N)NC(=O)[C@H](CCCCN)NC(=O)[C@H](CC(C)C)NC(=O)[C@H](CC(C)C)NC(=O)[C@@H](N)CCCCN)C(=O)N[C@@H](CCCCN)C(=O)N[C@H](C(=O)N[C@@H](CC(C)C)C(=O)N[C@@H](CC(C)C)C(N)=O)[C@@H](C)O [KLLKRIKTLL] | 19.6 µM (≈ 24 µg/mL) | > 19.6 µM | 
7 | CC[C@H](C)[C@H](NC(=O)[C@H](CCCN=C(N)N)NC(=O)[C@H](CCCCN)NC(=O)[C@H](CC(C)C)NC(=O)[C@H](CC(C)C)NC(=O)CN)C(=O)N[C@@H](CCCCN)C(=O)N[C@H](C(=O)N[C@@H](CC(C)C)C(N)=O)[C@@H](C)O [GLLKRIKTL] | > 41.3 µM | > 41.3 µM | 
8 | CSCC[C@H](NC(=O)[C@H](CCCN=C(N)N)NC(=O)[C@H](Cc1c[nH]c2ccccc12)NC(=O)[C@H](CCC(N)=O)NC(=O)[C@H](Cc1c[nH]c2ccccc12)NC(=O)[C@H](CCCN=C(N)N)NC(=O)[C@H](CCCN=C(N)N)NC(=O)[C@H](CS)NC(=O)[C@H](CCCCN)NC(=O)[C@@H](N)Cc1ccccc1)C(=O)N[C@@H](CCCCN)C(=O)O [FKCRRWQWRMK] | 30.8 µM (≈ 50 µg/mL) | 30.8 µM (≈ 50 µg/mL) | 

Results, then the compound that gave them:

Row | MIC [1] | MIC [2] | MIC [3] | SMILES
9 | 54.7 µM (≈ 59.9 µg/mL) | > 54.7 µM |  | CC[C@H](C)[C@H](NC(=O)[C@H](CCCN=C(N)N)NC(=O)[C@H](CCCCN)NC(=O)[C@H](CC(C)C)NC(=O)[C@@H](N)CC(C)C)C(=O)N[C@@H](CCCCN)C(=O)N[C@H](C(=O)N[C@@H](CC(C)C)C(=O)N[C@@H](CC(C)C)C(N)=O)[C@@H](C)O [LLKRIKTLL]
10 | 4.08 µM (≈ 7.5 µg/mL) | 2.72 µM (≈ 5 µg/mL) | 10.9 µM (≈ 20 µg/mL) | CSCC[C@H](NC(=O)[C@H](CCCN=C(N)N)NC(=O)[C@@H](N)Cc1ccc(O)cc1)C(=O)N[C@@H](Cc1c[nH]c2ccccc12)C(=O)N[C@@H](CCCN=C(N)N)C(=O)N[C@@H](Cc1c[nH]c2ccccc12)C(=O)N[C@@H](CCCN=C(N)N)C(=O)N[C@@H](Cc1c[nH]c2ccccc12)C(=O)N[C@@H](CCCN=C(N)N)C(=O)N[C@@H](Cc1c[nH]c2ccccc12)C(=O)N[C@@H](CCCN=C(N)N)C(N)=O [YRMWRWRWRWR]
11 | 64 µM (≈ 91.1 µg/mL) | > 100 µM | > 100 µM | CC(C)[C@H](NC(=O)[C@H](Cc1ccc(O)cc1)NC(=O)[C@H](CO)NC(=O)[C@H](CCCCN)NC(=O)[C@@H](N)Cc1c[nH]c2ccccc12)C(=O)N[C@@H](CCCN=C(N)N)C(=O)N[C@@H](CCCN=C(N)N)C(=O)N[C@@H](Cc1c[nH]c2ccccc12)C(=O)N[C@@H](CCCN=C(N)N)C(=O)N[C@@H](CO)C(N)=O [WKSYVRRWRS]
12 | 16 µM (≈ 27.9 µg/mL) | 32 µM (≈ 55.7 µg/mL) | 100 µM (≈ 174 µg/mL) | CC(C)[C@H](NC(=O)[C@H](Cc1ccc(O)cc1)NC(=O)[C@H](CO)NC(=O)[C@H](CCCCN)NC(=O)[C@@H](N)Cc1c[nH]c2ccccc12)C(=O)N[C@@H](CCCN=C(N)N)C(=O)N[C@@H](CCCN=C(N)N)C(=O)N[C@@H](Cc1c[nH]c2ccccc12)C(=O)N[C@@H](CCCN=C(N)N)C(=O)N[C@@H](CO)C(=O)N[C@@H](CCCN=C(N)N)C(=O)N[C@@H](Cc1ccc(O)cc1)C(N)=O [WKSYVRRWRSRY]
13 | 233 µM (≈ 512 µg/mL) |  |  | CC(C)C[C@H](NC(=O)[C@@H](N)C(C)C)C(=O)N[C@H](C(=O)N1CCC[C@H]1C(=O)N[C@@H](CCC(N)=O)C(=O)NCC(=O)N[C@@H](Cc1ccccc1)C(=O)N[C@@H](C)C(=O)N[C@H](C(=O)N[C@H](C(=O)N[C@@H](CCCCN)C(=O)N[C@@H](CCCCN)C(=O)N[C@@H](C)C(=O)N[C@@H](CC(N)=O)C(=O)N[C@@H](Cc1ccccc1)C(=O)N[C@H](C(=O)N[C@@H](C)C(=O)N[C@@H](Cc1ccccc1)C(=O)N[C@@H](Cc1ccc(O)cc1)C(=O)N[C@H](C(=O)O)[C@@H](C)O)C(C)C)C(C)C)C(C)C)C(C)C [VLVPQGFAVVKKANFVAFYT]
14 | > 100 µM | > 100 µM | > 100 µM | CC[C@H](C)[C@H](NC(=O)CNC(=O)[C@@H](N)CO)C(=O)N[C@@H](CCC(N)=O)C(=O)N1CCC[C@H]1C(=O)N[C@@H](CCC(=O)O)C(=O)N[C@@H](CCC(N)=O)C(=O)N[C@@H](Cc1cnc[nH]1)C(=O)N[C@@H](CO)C(=O)N[C@@H](CO)C(N)=O [SGIQPEQHSS]
15 |  | 6 µM (≈ 12.6 µg/mL) |  | CC(C)C[C@H](NC(=O)[C@H](C)NC(=O)[C@@H](N)CO)C(=O)N[C@H](C(=O)NCC(=O)N[C@H]1CSSC[C@@H](C(=O)N[C@@H](Cc2ccccc2)C(=O)NCC(=O)N[C@@H](CCCN=C(N)N)C(=O)O)NC(=O)[C@@H]2CCCN2C(=O)[C@H](CCCCN)NC(=O)[C@@H]2CCCN2C(=O)[C@@H]2CCCN2C(=O)[C@H](Cc2ccc(O)cc2)NC(=O)[C@H](CO)NC(=O)[C@H](CCCCN)NC(=O)[C@H]([C@@H](C)O)NC(=O)[C@H](Cc2c[nH]c3ccccc23)NC1=O)C(C)C [SALVGCWTKSYPPKPCFGR]
16 | 16 µM (≈ 25.3 µg/mL) | 32 µM (≈ 50.5 µg/mL) | > 100 µM | CC(C)[C@H](NC(=O)[C@H](Cc1ccc(O)cc1)NC(=O)[C@H](CO)NC(=O)[C@H](CCCCN)NC(=O)[C@@H](N)Cc1c[nH]c2ccccc12)C(=O)N[C@@H](CCCN=C(N)N)C(=O)N[C@@H](CCCN=C(N)N)C(=O)N[C@@H](Cc1c[nH]c2ccccc12)C(=O)N[C@@H](CCCN=C(N)N)C(=O)N[C@@H](CO)C(=O)N[C@@H](CCCN=C(N)N)C(N)=O [WKSYVRRWRSR]
17 |  |  | 32 µM (≈ 36.9 µg/mL) | CSCC[C@H](NC(=O)[C@H](Cc1cnc[nH]1)NC(=O)[C@H](C)NC(=O)[C@H](CCSC)NC(=O)[C@@H](NC(=O)[C@H](CCCCN)NC(=O)[C@@H]1CCCN1C(=O)[C@H](CC(C)C)NC(=O)[C@@H](N)C(C)C)C(C)C)C(=O)N[C@@H](CCCCN)C(=O)O [VLPKVMAHMK]
18 |  |  | 64 µM (≈ 69.3 µg/mL) | CC(C)C[C@H](NC(=O)[C@@H](NC(=O)[C@H](CCCCN)NC(=O)[C@H](CCCCN)NC(=O)[C@@H](NC(=O)[C@H](CCCN=C(N)N)NC(=O)[C@H](CCCCN)NC(=O)[C@@H](NC(=O)[C@@H](N)CC(C)C)C(C)C)C(C)C)C(C)C)C(=O)O [LVKRVKKVL]
19 | 5.76 µM (≈ 7.99 µg/mL) |  |  | CC[C@H](C)[C@H](NC(=O)[C@H](Cc1c[nH]c2ccccc12)NC(=O)[C@H](CCCCN)NC(=O)[C@H](Cc1c[nH]c2ccccc12)NC(=O)[C@H](Cc1c[nH]c2ccccc12)NC(=O)[C@H](CCCCN)NC(=O)[C@H](CCCCN)NC(=O)[C@H](Cc1c[nH]c2ccccc12)NC(=O)[C@@H](N)CCCCN)C(N)=O [KWKKWWKWI]
20 | 30 µM (≈ 50 µg/mL) | 5 µM (≈ 8.34 µg/mL) | 20 µM (≈ 33.3 µg/mL) | CC(C)C[C@H](NC(=O)[C@H](CCCN=C(N)N)NC(=O)[C@@H](N)CCCCN)C(=O)N[C@@H](CCCN=C(N)N)C(=O)N[C@@H](CCCN=C(N)N)C(=O)N[C@H](C(=O)N[C@@H](Cc1c[nH]c2ccccc12)C(=O)N[C@@H](CCCN=C(N)N)C(=O)N[C@@H](CCCN=C(N)N)C(=O)N[C@@H](Cc1c[nH]c2ccccc12)C(=O)N[C@@H](CCCN=C(N)N)C(N)=O)C(C)C [KRLRRVWRRWR]
